Experimental findings from ChEMBL document CHEMBL2203034, “A new approach to explore the binding space of polysaccharide-based ligands: selectin antagonists” (ACS Med Chem Lett, 2012) are described below.

The target of assay [1] is T1, P-selectin (Homo sapiens) (UniProt P16109).
T1 sequence (whole entry): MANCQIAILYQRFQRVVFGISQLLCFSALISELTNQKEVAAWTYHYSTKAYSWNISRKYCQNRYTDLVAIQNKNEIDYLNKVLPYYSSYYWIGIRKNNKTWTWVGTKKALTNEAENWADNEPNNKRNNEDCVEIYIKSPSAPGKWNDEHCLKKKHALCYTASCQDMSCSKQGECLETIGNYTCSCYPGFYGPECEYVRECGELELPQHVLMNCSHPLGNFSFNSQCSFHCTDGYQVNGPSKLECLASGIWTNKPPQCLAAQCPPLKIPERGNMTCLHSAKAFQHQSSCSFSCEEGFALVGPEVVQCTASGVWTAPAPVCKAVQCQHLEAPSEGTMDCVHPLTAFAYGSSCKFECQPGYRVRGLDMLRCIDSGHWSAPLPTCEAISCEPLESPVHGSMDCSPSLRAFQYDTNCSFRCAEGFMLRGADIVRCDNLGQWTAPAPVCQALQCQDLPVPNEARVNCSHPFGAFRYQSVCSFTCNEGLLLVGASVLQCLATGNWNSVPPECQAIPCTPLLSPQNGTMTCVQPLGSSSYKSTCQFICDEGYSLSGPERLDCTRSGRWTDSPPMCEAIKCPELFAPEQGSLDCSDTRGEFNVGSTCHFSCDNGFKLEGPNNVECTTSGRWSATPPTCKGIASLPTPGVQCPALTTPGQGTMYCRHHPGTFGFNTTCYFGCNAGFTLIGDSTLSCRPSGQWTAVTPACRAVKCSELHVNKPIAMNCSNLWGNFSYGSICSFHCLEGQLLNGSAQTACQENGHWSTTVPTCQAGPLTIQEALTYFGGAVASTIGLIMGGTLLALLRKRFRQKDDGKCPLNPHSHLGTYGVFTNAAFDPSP
The assay is described as follows: Ratio of compound IC50 to sialyl Lewisx IC50 for solube P-selectin by surface plasmon resonance competitive binding assay. In general terms: SPR reads the build-up and loss of mass on a sensor chip optically.

A further assay concerns the target T2, P-selectin (Homo sapiens, UniProt P16109).
T2 sequence (P16109 whole entry): T1 sequence (whole entry)
As to the kind of experiment: Inhibition of immobilized rhPSGL-Ig binding to soluble P-selectin by surface plasmon resonance competitive binding assay.

Consider `COC(=O)[C@H](O[C@@H]1O[C@@H](C)[C@@H](O)[C@@H](O)[C@@H]1O)[C@@H](O[C@@H]1O[C@H](CO)[C@H](OC(=O)c2ccccc2)[C@H](O[C@H](Cc2ccccc2)C(=O)O)[C@H]1O)C(=O)OC`, for which the Ratio IC50 in assay [1] amounted to 37. Moreover, the IC50 (commonly the concentration needed to halve the response being measured) on P-selectin worked out at 18 µM.

For `COC(=O)[C@H](O[C@@H]1O[C@@H](C)[C@@H](O)[C@@H](O)[C@@H]1O)[C@@H](O[C@@H]1O[C@H](CO)[C@H](OC(=O)c2cccc3ccccc23)[C@H](O[C@H](Cc2ccccc2)C(=O)O)[C@H]1O)C(=O)OC`, the IC50 on P-selectin is more than 1000 µM. `COC(=O)[C@H](O[C@@H]1O[C@@H](C)[C@@H](O)[C@@H](O)[C@@H]1O)[C@@H](O[C@@H]1O[C@H](CO)[C@H](O)[C@H](O[C@H](Cc2ccccc2)C(=O)O)[C@H]1O)C(=O)OC`: the Ratio IC50 in assay [1] was 0.75. Besides, the IC50 at P-selectin amounted to 880 µM.

With `COC(=O)[C@H](O[C@@H]1O[C@@H](C)[C@@H](O)[C@@H](O)[C@@H]1O)[C@@H](O[C@@H]1O[C@H](CO)[C@H](O)[C@H](OCC(=O)O)[C@H]1O)C(=O)OC`, the IC50 on P-selectin is more than 1000 µM.
